Literature values in publication PMC9474474, “Determination of pharmacokinetics and tissue distribution of a novel lutetium-labeled PSMA-targeted ligand, ^177Lu-DOTA-PSMA-GUL, in rats by using LC–MS/MS” (Scientific Reports, 2022).

Design: method as in PMID 26985056
Settings: cited from earlier work

In the case of `O=C([O-])CN1CCN(CC(=O)[O-])CCN(CC(=O)NCC2CCC(C(=O)N[C@@H](Cc3ccc4ccccc4c3)C(=O)NCCCC[C@H](NC(=O)N[C@@H](CCC(=O)O)C(=O)O)C(=O)O)CC2)CCN(CC(=O)[O-])CC1.[177Lu+3]` (some centres unmarked) [^177Lu-PSMA-617], the elimination half-life (humans, radioactivity study) is listed as 90 h and the eliminated by urine (patients with PSMA-positive tumor phenotype) is listed as “approximately 50%”.
